The assay has as its system resistant strain of E. Coli (O157.H7). Briefly: In vivo animal study #2: granuloma pouch model in Wistar rats, bacterial counts in pouch fluid. To be noted: male Wistar rats; given alone every 12 h, six doses (co-trimoxazole 30 mg/kg i.p.; inventive composition 500 mg/kg p.o.); all time intervals. Here is the method:
Male Wistar rats, weighing 200-250 g, were infected with a resistant strain of E. Coli (O157.H7) using the granuloma pouch model. Specifically, pouches were produced by injecting 30 ml of sterile filtered air followed by injection of 0.5 ml of 0.5% croton oil in sesame seed oil deep into the loose connective dorsal tissue. Two days later, approximately 10 ml of air were withdrawn, and after 2 more days, 2 ml of 1% peptone and 0.35% agar in saline solution were injected in the pouch. On day 10, rats were infected with 10^6 CFU of E. coli suspended in 1.5 ml of THB containing 2.5% gastric mucin and 0.35% agar.
The rats were divided in groups of five rats, and the following drugs, either alone or concurrently administered, were administered every 12 h for three consecutive days, making a total of six doses, starting 24 h after infection: co-trimoxazole (Septrin, GlaxoSmithKline) 30 mg/kg (i.p) and the inventive composition 500 mg/kg (p.o) (the 500 mg referring to the weight of the lyophilisate of Table 1 contained in the amount of mixed solution administered). […]
Samples (0.5 mL) of pouch fluid were withdrawn from each animal just before treatment (0 time), 3 h after the first dose, just before the last dose, 3 and 24 h after the last dose. […] The results represent the average values obtained from all the animals in the same group at the same intervals and expressed as log 10 CFU/ml. […]

Regarding co-trimoxazole [cotrimoxazole], the “bacterial counts in pouch fluid, difference to control group” value was “no significant differences”.

For the origin of these results see patent publication US20250127741A1, “MEDICINAL COMPOSITION COMPRISING RIBOSE AND AMINO ACIDS” (MEE-HU PHARMA GMBH, priority 2021, published 2025).
